Values of other authors, collected in US7955790B2, “Skin substitutes with improved barrier function” (Stratatech Corporation, priority 2001, dated 2011).
Read-outs that look alike come from different tables or passages of the source.

Experiments:
in vitro Cultures [1] = conditions: for Lipid Composition: substance added to in vitro cultures
in vitro Cultures [2] = conditions: substance added to in vitro cultures

## O=C1O[C@H]([C@@H](O)CO)C(O)=C1O [Vitamin C, ascorbic acid]
In vitro Cultures [1]; skin equivalent cultures, electron microscopy
  overall SC architecture: improved
In vitro Cultures [1]
  Lipid Composition: Major
In vitro Cultures [1]; listed as vitamin C
  Lipid Composition: improved

## EGF: epidermal growth factor added to in vitro cultures
In vitro Cultures [1]
  Lipid Composition: High triglycerides

## Estrogen
In vitro Cultures [2]
  Barrier Function: Accelerates

## Vitamin D
In vitro Cultures [2]; listed as vitamin D
  Barrier Function: improvements in some studies

## Vitamin E
In vitro Cultures [1]
  Lipid Composition: No effect
